The record followed here is article PMC5356443, “Structural, mechanistic and functional insight into gliotoxin bis-thiomethylation in Aspergillus fumigatus” (Open Biology, 2017).

The target in data set [1] is GtmA (gliotoxin S-methyltransferase, TmtA) (Aspergillus fumigatus, UniProt Q4X158). In words: RP-HPLC methyltransferase assay with purified enzyme, Km determination. Type of data set: biochemical.
Data set [2] concerns [H][C@]12C(=CC=C[C@@H]1O)C[C@@]1(S)C(=O)N(C)[C@@](S)(CO)C(=O)N12. The data set is described as above. Type of data set: biochemical, Aspergillus fumigatus. The note with it: SAM.

GtmA (gliotoxin S-methyltransferase, TmtA), sequence (Q4X158 whole entry): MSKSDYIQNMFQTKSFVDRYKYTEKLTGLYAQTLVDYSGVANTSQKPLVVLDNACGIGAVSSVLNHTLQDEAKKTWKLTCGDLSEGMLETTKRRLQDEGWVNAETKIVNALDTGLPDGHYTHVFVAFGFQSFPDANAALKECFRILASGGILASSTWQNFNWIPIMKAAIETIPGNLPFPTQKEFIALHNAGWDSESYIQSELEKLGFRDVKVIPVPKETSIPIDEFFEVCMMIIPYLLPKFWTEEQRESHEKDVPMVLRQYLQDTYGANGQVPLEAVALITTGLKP

Take `CS[C@@]12CC3=CC=C[C@H](O)[C@H]3N1C(=O)[C@](S)(CO)N(C)C2=O` [MmGT, monomethylgliotoxin]: in data set [1], the Michaelis-Menten constant (Km) (in general, the substrate concentration at which the rate is half of its maximum) was determined as 184 µM. For the compound “GtmA (gliotoxin S-methyltransferase, TmtA) (Aspergillus fumigatus Af293)”, in data set [2], the Km is reported as 38.62 µM.
